Assay results taken from ChEMBL document CHEMBL1201862, “PubChem BioAssay data set” (2004).
Calls of active or inactive are those of the source.

What was measured:
[1] = target: Cytochrome P450 2C9 (Homo sapiens, UniProt P11712)
[2] = target: T1, High affinity choline transporter 1 (Homo sapiens, UniProt Q9GZV3); experiment: CHT inhibitors, dose response, cell-based, 5-point CRC, membrane potential dye (AID 504840); assay type: functional
T1 sequence (Q9GZV3 whole entry): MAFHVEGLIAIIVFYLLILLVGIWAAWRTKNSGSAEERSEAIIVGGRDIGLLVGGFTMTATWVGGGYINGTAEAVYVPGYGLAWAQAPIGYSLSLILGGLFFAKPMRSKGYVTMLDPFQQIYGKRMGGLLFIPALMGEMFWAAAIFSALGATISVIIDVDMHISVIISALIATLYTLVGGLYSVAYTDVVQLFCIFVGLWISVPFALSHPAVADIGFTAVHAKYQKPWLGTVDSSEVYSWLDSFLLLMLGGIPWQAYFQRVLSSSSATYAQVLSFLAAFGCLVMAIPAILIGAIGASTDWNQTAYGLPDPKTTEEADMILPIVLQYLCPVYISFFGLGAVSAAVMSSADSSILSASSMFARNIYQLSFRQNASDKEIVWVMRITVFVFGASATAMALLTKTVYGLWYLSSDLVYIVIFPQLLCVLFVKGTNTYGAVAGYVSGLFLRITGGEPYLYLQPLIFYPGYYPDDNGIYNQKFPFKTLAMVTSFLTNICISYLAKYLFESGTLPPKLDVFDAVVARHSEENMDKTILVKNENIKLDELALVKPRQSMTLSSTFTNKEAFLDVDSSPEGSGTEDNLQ

[3] = microbe, parasite or virus in culture; assay type: functional; conditions: Mycobacterium tuberculosis
[4] = tested on: Streptococcus sp. 'group A'; experiment: growth inhibition of control SK(-) GAS strain, dose response, counter-screen for streptokinase expression inhibitor project, luminescence, kanamycin, BacTiterGlo, confirmation (AID 1900); assay type: functional, organism-based
[5] = inhibitors of intracellular T. cruzi replication, confirmation, NIH3T3 host cells, beta-gal luminescence (AID 2044); assay type: functional, cell-based;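 also: intracellular parasites grown in NIH/3T3 mouse fibroblasts as host cells; luminescent beta-galactosidase reporter signal from transgenic T. cruzi replicating inside host cells; inhibitors lower the luminescence signal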
[6] = cytotoxicity toward NIH3T3 fibroblasts, dose response, counter-screen, cell-based, ATP luminescence, mouse fibroblasts (AID 2010); assay type: functional;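 also: cells exposed to compound for about 90 hours before reading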
[7] = Luminescence Cell-Based Dose Retest to Confirm Inhibitors of Cancer Stem Cells. [Related pubchem assays (depositor defined):AID2717, AID2721]; assay type: functional; conditions: Homo sapiens
[8] = tested on: Streptococcus; experiment: Group A Streptococcus viability loss, dose response, counter-screen for streptokinase expression inhibitor project, luminescence, BacTiterGlo (AID 1915); assay type: functional, organism-based;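 also: potency for reduction of bacterial viability or growth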
[9] = tested on: INS1; experiment: beta cell apoptosis inhibitors, cytokine rescue, dose response, luminescence, retest (AID 449756); assay type: functional, cell-based; conditions: Rattus norvegicus;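 also: cell death triggered by IL-1 beta plus TNF-alpha plus IFN-gamma mixture; protective hits raise ATP signal compared with cytokine alone wells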
[10] = target: Heat shock protein HSP 90-alpha (Homo sapiens, UniProt P07900); assay type: functional, organism-based
[11] = growth suppression of beta-catenin-knockout colon cells, dose response, cell-based, HCT116, human colon tumor (AID 1045); assay type: functional;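 also: HCT116 colon tumor cells with beta catenin knocked out; cells exposed to compound for 60 hours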
[12] = growth suppression of PTEN-null colon cells, dose response, cell-based, HCT116 PTEN knockout (AID 1047); assay type: functional;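 also: HCT116 colon tumor cells with PTEN knocked out; cells exposed to compound for 60 hours before readout; potency for loss of cell viability measured by luminescence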
[13] = HEp-2 cell cytotoxicity, dose response, cytotoxicity control for RSV inhibitor project, HTS (AID 2410); assay type: functional; conditions: human respiratory syncytial virus
[14] = target: Genome polyprotein (dengue virus type 2, UniProt P29990); experiment: Dengue-2 NS5 methyltransferase inhibitors, primary screen, biochemical, confirmation dose response (AID 588689); assay type: functional
[15] = target: T2, Cytochrome P450 1A2 (Homo sapiens, UniProt P05177);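 also: PubChem cytochrome P450 panel assay, CYP1A2 panel member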
T2 sequence (P05177 whole entry): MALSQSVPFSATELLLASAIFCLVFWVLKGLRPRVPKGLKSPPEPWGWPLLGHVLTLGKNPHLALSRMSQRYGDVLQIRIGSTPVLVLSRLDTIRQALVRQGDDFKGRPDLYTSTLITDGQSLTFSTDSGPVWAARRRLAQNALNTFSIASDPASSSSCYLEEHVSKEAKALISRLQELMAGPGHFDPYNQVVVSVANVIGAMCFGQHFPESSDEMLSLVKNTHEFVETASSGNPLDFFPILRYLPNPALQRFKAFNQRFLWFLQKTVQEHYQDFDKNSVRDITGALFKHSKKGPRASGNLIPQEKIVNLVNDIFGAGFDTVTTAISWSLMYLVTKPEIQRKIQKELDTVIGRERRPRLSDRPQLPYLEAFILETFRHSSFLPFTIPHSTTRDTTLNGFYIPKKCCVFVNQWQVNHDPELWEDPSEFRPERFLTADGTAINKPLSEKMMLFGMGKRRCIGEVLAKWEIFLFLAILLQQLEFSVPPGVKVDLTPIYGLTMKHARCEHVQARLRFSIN

[16] = tested on: HEK293; experiment: inhibitors of LMP1-driven NF-kB reporter, dose response, cell-based, HEK293, luciferase, cherry-pick (AID 588343); assay type: functional; conditions: Homo sapiens
[17] = P. falciparum Dd2 growth inhibitors, dose response, SYBR Green, cherry-picked samples (AID 1159567); assay type: functional, cell-based
[18] = target: T3, Zinc finger protein mex-5 (Caenorhabditis elegans, UniProt Q9XUB2); experiment: MEX-5/TCR-2 RNA interaction inhibitors, dose response, biochemical, C. elegans, fluorescence polarization (AID 1960)
T3 sequence (Q9XUB2 whole entry): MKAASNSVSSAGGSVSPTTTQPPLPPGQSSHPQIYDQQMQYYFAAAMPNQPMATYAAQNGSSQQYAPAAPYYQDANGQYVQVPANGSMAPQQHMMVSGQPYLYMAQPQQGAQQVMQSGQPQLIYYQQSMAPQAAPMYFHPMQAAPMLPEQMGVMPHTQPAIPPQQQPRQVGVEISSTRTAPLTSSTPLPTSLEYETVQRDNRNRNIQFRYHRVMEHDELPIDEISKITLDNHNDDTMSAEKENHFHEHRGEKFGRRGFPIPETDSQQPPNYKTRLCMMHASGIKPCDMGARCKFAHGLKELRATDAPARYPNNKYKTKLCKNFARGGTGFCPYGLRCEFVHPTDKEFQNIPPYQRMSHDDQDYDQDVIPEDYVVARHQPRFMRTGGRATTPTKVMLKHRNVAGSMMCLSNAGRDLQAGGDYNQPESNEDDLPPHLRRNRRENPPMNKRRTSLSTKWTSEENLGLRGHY

[19] = target: T4, RNA-binding protein pos-1 (Caenorhabditis elegans, UniProt G5EF15); experiment: inhibitors of POS-1/mex-3 RNA binding, dose response, biochemical, fluorescence polarization (AID 1964);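 also: purified POS-1 fused to maltose binding protein made in E. coli; potency of compounds blocking POS-1 binding to fluorescent RNA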
T4 sequence (G5EF15 whole entry): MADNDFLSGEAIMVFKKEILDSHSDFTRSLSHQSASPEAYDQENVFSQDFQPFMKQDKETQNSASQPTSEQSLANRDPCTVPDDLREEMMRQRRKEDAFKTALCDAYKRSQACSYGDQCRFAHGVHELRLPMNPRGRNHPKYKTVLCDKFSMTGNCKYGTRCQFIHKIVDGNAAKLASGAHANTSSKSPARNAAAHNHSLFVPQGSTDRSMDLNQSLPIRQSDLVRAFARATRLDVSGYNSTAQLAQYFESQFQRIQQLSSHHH

[20] = target: T5, Polyadenylate-binding protein 1 (Homo sapiens, UniProt P11940); experiment: PABP1 MLLE–PAM2 interaction inhibitors, dose response, miRNA deadenylation inhibitor project, biochemical, fluorescence polarization, Cy5-PAM2 peptide, secondary (AID 602260); assay type: functional; conditions: read-out: IC50_Mean
[21] = target: T5, Polyadenylate-binding protein 1; experiment: PABP1 MLLE–PAM2 binding inhibitor potency, dose response, biochemical, fluorescence polarization, FITC-PAM2 peptide (AID 602259); assay type: functional; conditions: read-out: IC50_Mean

T5 sequence (P11940 whole entry): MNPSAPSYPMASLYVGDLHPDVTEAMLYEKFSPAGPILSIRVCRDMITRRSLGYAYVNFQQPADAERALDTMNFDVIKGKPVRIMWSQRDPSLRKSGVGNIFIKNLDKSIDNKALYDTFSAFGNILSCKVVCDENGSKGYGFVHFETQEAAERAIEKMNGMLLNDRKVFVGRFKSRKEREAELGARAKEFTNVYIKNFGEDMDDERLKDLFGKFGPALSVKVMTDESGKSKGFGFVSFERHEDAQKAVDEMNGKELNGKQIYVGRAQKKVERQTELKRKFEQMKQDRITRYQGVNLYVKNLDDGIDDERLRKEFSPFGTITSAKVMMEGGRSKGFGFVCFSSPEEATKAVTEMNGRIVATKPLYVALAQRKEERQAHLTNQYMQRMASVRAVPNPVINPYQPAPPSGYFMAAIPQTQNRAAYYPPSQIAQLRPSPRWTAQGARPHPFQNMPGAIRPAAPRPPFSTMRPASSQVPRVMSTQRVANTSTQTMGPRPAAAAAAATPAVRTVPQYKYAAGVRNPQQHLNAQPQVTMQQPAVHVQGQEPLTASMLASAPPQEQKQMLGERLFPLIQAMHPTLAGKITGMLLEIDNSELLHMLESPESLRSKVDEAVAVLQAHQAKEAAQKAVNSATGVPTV
Sequence of Cytochrome P450 2C9 (P11712 whole entry): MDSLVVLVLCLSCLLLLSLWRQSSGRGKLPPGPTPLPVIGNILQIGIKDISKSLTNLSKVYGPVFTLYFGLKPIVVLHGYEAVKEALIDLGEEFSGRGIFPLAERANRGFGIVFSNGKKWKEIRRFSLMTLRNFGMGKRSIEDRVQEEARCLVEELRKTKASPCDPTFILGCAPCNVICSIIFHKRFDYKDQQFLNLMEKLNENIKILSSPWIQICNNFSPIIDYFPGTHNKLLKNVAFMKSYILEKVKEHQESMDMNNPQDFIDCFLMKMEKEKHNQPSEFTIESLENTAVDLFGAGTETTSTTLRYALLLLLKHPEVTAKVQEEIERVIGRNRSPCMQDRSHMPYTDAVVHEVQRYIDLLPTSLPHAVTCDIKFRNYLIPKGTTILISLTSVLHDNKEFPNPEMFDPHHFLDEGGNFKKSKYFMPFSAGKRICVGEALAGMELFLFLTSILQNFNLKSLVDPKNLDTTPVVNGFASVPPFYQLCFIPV
Sequence of Genome polyprotein (P29990 2492-3391 limits assumed): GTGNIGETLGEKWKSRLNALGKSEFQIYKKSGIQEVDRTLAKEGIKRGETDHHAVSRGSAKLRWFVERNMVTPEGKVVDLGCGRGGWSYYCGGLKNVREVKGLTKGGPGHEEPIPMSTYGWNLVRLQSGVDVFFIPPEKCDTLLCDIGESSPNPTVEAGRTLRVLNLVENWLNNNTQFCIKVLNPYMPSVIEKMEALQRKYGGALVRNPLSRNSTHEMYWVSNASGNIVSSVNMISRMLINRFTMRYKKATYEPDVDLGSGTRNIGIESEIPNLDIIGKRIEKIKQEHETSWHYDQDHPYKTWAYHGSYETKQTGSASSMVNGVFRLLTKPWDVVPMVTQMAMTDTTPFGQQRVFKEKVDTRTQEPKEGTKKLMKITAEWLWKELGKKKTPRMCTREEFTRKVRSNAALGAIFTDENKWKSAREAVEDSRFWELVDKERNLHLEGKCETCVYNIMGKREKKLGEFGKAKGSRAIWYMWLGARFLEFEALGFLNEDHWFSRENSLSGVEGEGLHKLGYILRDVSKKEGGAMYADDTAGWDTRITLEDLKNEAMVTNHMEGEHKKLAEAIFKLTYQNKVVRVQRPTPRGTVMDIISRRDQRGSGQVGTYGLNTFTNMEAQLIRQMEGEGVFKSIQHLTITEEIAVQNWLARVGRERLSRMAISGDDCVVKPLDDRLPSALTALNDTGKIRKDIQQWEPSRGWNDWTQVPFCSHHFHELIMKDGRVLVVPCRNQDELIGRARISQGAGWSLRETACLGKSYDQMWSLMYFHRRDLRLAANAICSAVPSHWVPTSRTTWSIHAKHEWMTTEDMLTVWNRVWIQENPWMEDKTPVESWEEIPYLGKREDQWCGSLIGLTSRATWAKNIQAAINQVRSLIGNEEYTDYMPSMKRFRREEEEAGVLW

C=CCn1cc(/C=N\NC(=O)c2cc3c(ccc4ccccc43)o2)c2ccccc21
AC50 [1]: inconclusive

O=C(c1c(O)c2ccccc2oc1=O)C1CCCCC1
IC50 [2]: 10 µM (active)

Cc1nnc2oc(O)c(C)c(C)c1-2
AC50 [1]: inconclusive

CC(=O)c1ccc(N2CCC(c3cc(-c4ccc(Cl)cc4Cl)[nH]n3)CC2)c([N+](=O)[O-])c1
CC50 [3]: 29.2 µM (active) | EC50 [4]: 4.36 µM (active) | EC50 [5]: 1.24 µM (active) | EC50 [6]: > 60 µM (inconclusive) | AC50 [7]: 2.19 µM (active) | EC50 [8]: 8.12 µM (active)

CCN1C/C(=C/c2cccc([N+](=O)[O-])c2)C(=O)/C(=C/c2cccc([N+](=O)[O-])c2)C1
AC50 [9]: 2.24 µM (active) | AC50 [10]: 4.21 µM (active) | EC50 [11]: 0.062 µM (active) | EC50 [12]: 0.085 µM (active)

Cc1cc(Nc2cc(Cl)nc(Sc3ccc(NC(=O)C4CC4)cc3)n2)[nH]n1
CC50 [3]: 35.8 µM (active)

Cc1cccc(NC(=O)c2cc(NC(=O)C3CCCCC3C(=O)O)ccc2N2CCCCC2)c1 (configuration not stated)
CC50 [13]: 15.7 µM (active) | IC50 [14]: 37.7 µM (active)

CCc1c(C)sc(NC(=O)OC)c1C(N)=O
AC50 [1]: inconclusive

O=C1C(O)=C(C2CCC(c3ccc(Cl)cc3)CC2)C(=O)c2ccccc21 (configuration not stated)
CC50 [3]: 12.8 µM (active) | AC50 [15]: 10 µM (inconclusive)

CCOC(=O)c1oc2nc(CC(C)C)c3c(c2c1N)CCCC3
IC50 [2]: 12.9 µM (active)

COc1ccc(C(=O)N[C@H]2CCCCNC2=O)cc1OC1CCN(C(C)C)CC1
IC50 [2]: 15.1 µM (active)

CC[C@]1(C(=O)OC)[C@H]2C(=O)N(Cc3ccccc3)C(=O)[C@H]2[C@H]2CN=C(SCc3ccc(Cl)cc3)N21
AC50 [16]: 3.31 µM (active)

COCC(=O)N1[C@H](CO)[C@@H](c2ccccc2)C12CN(Cc1cc(F)ccc1F)C2
AC50 [17]: 18.1 µM (active)

CCCCc1cn([C@@H](CCCCN)C(=O)N2CCNCC2)nn1
EC50 [18]: 26.1 µM (active) | EC50 [19]: 31.9 µM (active) | IC50 [20]: > 66 µM (inactive) | IC50 [21]: 21 µM (inactive)

COc1ccc(NC(=O)c2ccc(-c3ccccc3)cc2)cc1S(=O)(=O)N1CCOCC1
AC50 [16]: 0.698 µM (active)

Oc1cc(CNC2CCCCC2)c(O)cc1CNC1CCCCC1
IC50 [14]: 27.4 µM (active) | IC50 [20]: > 66 µM (inactive) | IC50 [21]: 47.7 µM (inactive)

N#C[C@@H]1[C@H](c2ccccc2-c2ccc(F)cc2)[C@H](CO)N1C(=O)NC1CCCC1
AC50 [17]: 5.12 µM (active)
